For two compounds, IC50 results are on record in patent US20230074545A1, “TREATMENT OF CANCER WITH CDK12/13 INHIBITORS” (Kinnate Biopharma Inc., priority 2019, published 2023).

Structures are written as SMILES. Where two headings read alike, the source gives them in different places.

One assay has as its system HCC70 cells. Nature of the assay: HCC70 cell proliferation (CellTiter-Glo). Format: cell-based. The following applies: Homo sapiens, read-out: Inhibition of Proliferation of HCC70 Cells (IC50 in M). Here is the method:
HCC70 was the cell line used as a model of triple-negative breast cancer (TNBC). This cell line was obtained from ATCC and was initiated from a primary ductal carcinoma in 1992 (Catalog #CRL-2315; mammary gland primary ductal carcinoma). The HCC-70 tumor cell line was maintained in vitro as a monolayer culture in RPMI-1640 medium supplemented with 10% heat inactivated fetal bovine serum at 37° C. in an atmosphere of 5% CO2 in air.
Representative compounds were tested at different concentrations (from 4 μM to 126.4 pM; 0.5 log serial dilutions) for their ability to inhibit the proliferation of HCC70 cells. Cells were grown in ATCC-formulated RPMI-1640 Medium (ATCC 30-2001)+10% FBS. The cells were cultured at 37° C. in a humidified chamber in the presence of 5% CO2. Proliferation assays were conducted over a 72 hour time period.
(§1) Cells were cultured and maintained as described above, with cells always fed on the day prior to assay. Assays were run with a 2 hour compound exposure followed by a washout and then a 72 hour proliferation time or exposed to the test compounds for 72 hours with no washout of compound. DMSO was used as a control in all wells not receiving test compound and DMSO wells were used for plate normalization. Proliferation and survival of cells was quantified based on the amount of total ATP following cell lysis as determined by using a standard assay kit used according to manufacturer's instructions. Experiments were performed in the same media used by each cell type for growth and maintenance. Cells (5×10^4) were plated in 96 well plates for compound exposure. CellTiter-Glo® (Promega Corporation, Madison, Wis. USA) was used to assess the anti-proliferative effects of the compounds following manufacturer's directions and utilizing the reagents supplied with the CellTiter-Glo® kit.
A general note: In ATP-based viability assays light output follows the ATP content of the culture.

Assay [1] concerns RNA polymerase II. Nature of the assay: Ex vivo RNA polymerase II phosphorylation (pS2/S2) in human PBMCs. Particulars: PBMC, hPBMCs, 2 hours. Format: cell-based. Here is the method: (§2) The ability of the compounds to inhibit phosphorylation of peripheral blood mononuclear cells (PBMCs) was analyzed ex vivo. Compounds 1 and 4 were dosed at concentrations between 4 μM to 126.4 pM (0.5 log serial dilutions) for 2 hours. The amount of phosphorylated RNA polymerase II and the total amount of RNA polymerase II was analyzed. The values were normalized by taking the ratio of the phosphorylated RNA polymerase II to the total RNA polymerase II (pS2/S2).

The subject of the next assay is OVCAR-3 cells. Kind of assay: OVCAR-3 cell proliferation (CellTiter-Glo). Format: cell-based. The following applies: Homo sapiens, read-out: Inhibition of proliferation of OVCAR3 cells (IC50 in M).
Text: OVCAR-3 was used as the cell line to model for ovarian cancer in vitro and in vivo. This cell line was obtained from ATCC (Catalog #HTB-161) and is an adenocarcinoma line from the malignant ascites of a patient with progressive adenocarcinoma of the ovary and embodies a preclinical model of high-grade, serous ovarian cancer (HGSOC). OVCAR-3 has been deemed an appropriate model system in which to study drug resistance in ovarian cancer, and the presence of hormone receptors should be useful for the evaluation of hormonal therapy. OVCAR-3 is resistant to clinically relevant concentrations of adriamycin, melphalan and cisplatin.
Compounds 1-5 were tested at different concentrations (from 4 μM to 126.4 pM; 0.5 log serial dilutions) for their ability to inhibit the proliferation of OVCAR-3 cells. Cells were grown in ATCC-formulated RPMI-1640 Medium (ATCC 30-2001)+10% FBS. The cells were cultured at 37° C. in a humidified chamber in the presence of 5% CO2. Proliferation assays were conducted over a 72 hour time period.
as §1

The next assay has as its target T1, CDK13 (Homo sapiens, UniProt Q14004).
T1 construct: either as full-length or enzymatically active fragments; purchased ProQinase GmbH (Reaction Biology)
Nature of the assay: Radiometric kinase assay (33PanQinase). The following applies: read-out: Inhibition of CDK Activity (molar inhibition in a radiometric assay). Format: biochemical. Here is the method:
(§3) The compounds 1-5 (see Table 1) were assayed for kinase activity at ProQinase (ProQinase GmbH, Reaction Biology; Freiburg, Germany) using their commercially available radiometric kinase assay services. Briefly, the compounds were provided as solids and were dissolved to 1×10^−03 M/100% DMSO stock solutions on the day of assay. All protein kinases were provided by ProQinase and were expressed in Sf9 insect cells or in E. coli as recombinant GST-fusion proteins or His-tagged proteins, either as full-length or enzymatically active fragments. All kinases were produced from human cDNAs and purified by either GSH-affinity chromatography or immobilized metal. The purity of the protein kinases was examined by SDS-PAGE/Coomassie staining, the identity was checked by mass spectroscopy. A radiometric protein kinase assay (^33PanQinase® Activity Assay) was used for measuring the kinase activity of the protein kinase. All kinase assays were performed in 96-well FlashPlates™ from PerkinElmer (Boston, Mass., USA) in a 50 microliter reaction volume. The reaction cocktail was pipetted in four steps in the following order: 1) 25 microliter of assay buffer (standard buffer/[gamma-^33P]-ATP); 2) 10 microliter of ATP solution (in H2O); 3) 5 microliter of test compound (in 10% DMSO); 4) 10 microliter of enzyme/substrate mixture.
(§4) As a parameter for assay quality, the Z′-factor (Zhang et al., J. Biomol. Screen. 2: 67-73, 1999) for the low and high controls of each assay plate (n=8) was used. ProQinase's criterion for repetition of an assay plate is a Z′-factor below 0.4.

The next assay deals with T2, CDK9 (Homo sapiens, UniProt P50750).
T2 construct: either as full-length or enzymatically active fragments; purchased ProQinase GmbH (Reaction Biology); host or cells: Sf9 insect cells or E. coli
Nature of the assay: Radiometric kinase assay (33PanQinase). Format: biochemical. The following applies: read-out: Inhibition of CDK Activity (molar inhibition in a radiometric assay). Here is the method: as §3, §4

A further assay concerns the target T3, CDK12 (Homo sapiens, UniProt Q9NYV4).
T3 construct: either as full-length or enzymatically active fragments; purchased ProQinase GmbH (Reaction Biology)
Kind of assay: Radiometric kinase assay (33PanQinase). Format: biochemical. Particulars: read-out: Inhibition of CDK Activity (molar inhibition in a radiometric assay). Here is the method: as §3, §4

For a further assay, the target named is T4, CDK7 (Homo sapiens, UniProt P50613).
T4 construct: either as full-length or enzymatically active fragments; purchased ProQinase GmbH (Reaction Biology); host or cells: Sf9 insect cells or E. coli
Nature of the assay: Radiometric kinase assay (33PanQinase). The following applies: read-out: Inhibition of CDK Activity (molar inhibition in a radiometric assay). Format: biochemical. The procedure:
as §3, §4

The target in the next assay is T5, CDK2 (Homo sapiens, UniProt P24941).
T5 construct: either as full-length or enzymatically active fragments; purchased ProQinase GmbH (Reaction Biology); host or cells: Sf9 insect cells or E. coli
Nature of the assay: Radiometric kinase assay (33PanQinase). Format: biochemical. Particulars: read-out: Inhibition of CDK Activity (molar inhibition in a radiometric assay). The procedure:
as §3, §4

The subject of assay [2] is RNA polymerase II. Kind of assay: Ex vivo RNA polymerase II phosphorylation (pS2/S2) in cynomolgus PBMCs. Format: cell-based. The following applies: Macaca fascicularis, PBMC; moPBMCs, 2 hours. Here is the method: as §2
[3] abbreviates: HCC70 (no washout), exposed for 72 hours.
[4] abbreviates: HCC70 (w/washout), 2 hour exposure, washout, 72 hour proliferation.
Setting [5] is: OVCAR-3 (no washout), exposed for 72 hours.
Setting [6] is: OVCAR-3 (w/washout), 2 hour exposure, washout, 72 hour proliferation.

T4 sequence (P50613 whole entry, the tested form may be a part): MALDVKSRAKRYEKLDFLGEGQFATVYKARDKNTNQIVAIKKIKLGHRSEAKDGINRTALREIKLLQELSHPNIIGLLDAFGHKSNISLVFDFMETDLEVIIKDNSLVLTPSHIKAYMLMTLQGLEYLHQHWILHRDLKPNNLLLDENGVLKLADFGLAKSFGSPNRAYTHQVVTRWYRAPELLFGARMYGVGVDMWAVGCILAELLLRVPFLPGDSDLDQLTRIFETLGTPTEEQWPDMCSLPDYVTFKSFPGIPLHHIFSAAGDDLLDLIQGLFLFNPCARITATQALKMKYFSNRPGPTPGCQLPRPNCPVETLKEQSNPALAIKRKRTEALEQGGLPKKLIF
T4 sequence (P51946 whole entry partner, the tested form may be a part): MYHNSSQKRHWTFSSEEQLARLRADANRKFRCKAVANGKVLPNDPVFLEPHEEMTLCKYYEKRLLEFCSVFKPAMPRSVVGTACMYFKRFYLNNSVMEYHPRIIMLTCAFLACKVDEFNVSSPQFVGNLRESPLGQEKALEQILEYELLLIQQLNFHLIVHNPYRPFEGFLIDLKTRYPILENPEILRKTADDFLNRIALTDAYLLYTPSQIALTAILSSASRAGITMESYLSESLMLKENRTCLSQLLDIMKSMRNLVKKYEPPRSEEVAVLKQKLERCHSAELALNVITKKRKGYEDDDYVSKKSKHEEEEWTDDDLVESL
T4 sequence (P51948 whole entry partner, the tested form may be a part): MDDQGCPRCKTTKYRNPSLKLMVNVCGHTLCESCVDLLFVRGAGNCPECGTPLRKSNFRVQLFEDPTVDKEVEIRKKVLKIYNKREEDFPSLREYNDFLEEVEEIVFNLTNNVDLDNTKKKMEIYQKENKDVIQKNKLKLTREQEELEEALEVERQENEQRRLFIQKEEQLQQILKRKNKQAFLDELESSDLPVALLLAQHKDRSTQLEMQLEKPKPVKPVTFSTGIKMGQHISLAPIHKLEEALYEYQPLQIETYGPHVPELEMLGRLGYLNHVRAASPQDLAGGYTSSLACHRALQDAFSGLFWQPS
T2 sequence (P50750 whole entry, the tested form may be a part): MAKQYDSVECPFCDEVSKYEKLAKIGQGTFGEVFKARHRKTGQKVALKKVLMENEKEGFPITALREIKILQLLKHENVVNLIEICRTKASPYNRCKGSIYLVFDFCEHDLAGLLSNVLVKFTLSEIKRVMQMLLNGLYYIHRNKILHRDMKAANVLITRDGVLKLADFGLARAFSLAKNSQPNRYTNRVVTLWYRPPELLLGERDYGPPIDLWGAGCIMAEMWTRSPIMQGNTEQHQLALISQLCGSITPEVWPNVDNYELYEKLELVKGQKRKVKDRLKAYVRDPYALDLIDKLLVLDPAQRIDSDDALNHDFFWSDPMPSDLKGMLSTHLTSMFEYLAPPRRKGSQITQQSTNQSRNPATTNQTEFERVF
T2 sequence (O60563 whole entry partner, the tested form may be a part): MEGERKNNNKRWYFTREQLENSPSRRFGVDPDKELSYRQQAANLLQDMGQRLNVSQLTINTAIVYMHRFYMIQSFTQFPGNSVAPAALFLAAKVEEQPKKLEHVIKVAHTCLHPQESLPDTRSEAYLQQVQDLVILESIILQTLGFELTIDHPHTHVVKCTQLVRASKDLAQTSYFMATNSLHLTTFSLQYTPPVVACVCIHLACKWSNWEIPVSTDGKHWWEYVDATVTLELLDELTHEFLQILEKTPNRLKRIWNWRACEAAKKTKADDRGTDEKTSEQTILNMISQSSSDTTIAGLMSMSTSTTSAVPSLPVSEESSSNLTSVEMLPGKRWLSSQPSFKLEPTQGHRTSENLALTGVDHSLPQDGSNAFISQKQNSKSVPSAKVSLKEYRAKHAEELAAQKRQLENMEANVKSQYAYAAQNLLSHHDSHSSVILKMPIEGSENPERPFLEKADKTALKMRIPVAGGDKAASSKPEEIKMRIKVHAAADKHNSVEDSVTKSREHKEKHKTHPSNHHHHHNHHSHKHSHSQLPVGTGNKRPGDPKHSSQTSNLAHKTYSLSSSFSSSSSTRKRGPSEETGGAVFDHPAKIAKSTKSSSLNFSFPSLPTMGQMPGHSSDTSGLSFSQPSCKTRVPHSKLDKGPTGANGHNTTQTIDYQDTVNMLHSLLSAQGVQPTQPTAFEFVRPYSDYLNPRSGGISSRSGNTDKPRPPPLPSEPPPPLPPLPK
T1 sequence (Q14004 whole entry, the tested form may be a part): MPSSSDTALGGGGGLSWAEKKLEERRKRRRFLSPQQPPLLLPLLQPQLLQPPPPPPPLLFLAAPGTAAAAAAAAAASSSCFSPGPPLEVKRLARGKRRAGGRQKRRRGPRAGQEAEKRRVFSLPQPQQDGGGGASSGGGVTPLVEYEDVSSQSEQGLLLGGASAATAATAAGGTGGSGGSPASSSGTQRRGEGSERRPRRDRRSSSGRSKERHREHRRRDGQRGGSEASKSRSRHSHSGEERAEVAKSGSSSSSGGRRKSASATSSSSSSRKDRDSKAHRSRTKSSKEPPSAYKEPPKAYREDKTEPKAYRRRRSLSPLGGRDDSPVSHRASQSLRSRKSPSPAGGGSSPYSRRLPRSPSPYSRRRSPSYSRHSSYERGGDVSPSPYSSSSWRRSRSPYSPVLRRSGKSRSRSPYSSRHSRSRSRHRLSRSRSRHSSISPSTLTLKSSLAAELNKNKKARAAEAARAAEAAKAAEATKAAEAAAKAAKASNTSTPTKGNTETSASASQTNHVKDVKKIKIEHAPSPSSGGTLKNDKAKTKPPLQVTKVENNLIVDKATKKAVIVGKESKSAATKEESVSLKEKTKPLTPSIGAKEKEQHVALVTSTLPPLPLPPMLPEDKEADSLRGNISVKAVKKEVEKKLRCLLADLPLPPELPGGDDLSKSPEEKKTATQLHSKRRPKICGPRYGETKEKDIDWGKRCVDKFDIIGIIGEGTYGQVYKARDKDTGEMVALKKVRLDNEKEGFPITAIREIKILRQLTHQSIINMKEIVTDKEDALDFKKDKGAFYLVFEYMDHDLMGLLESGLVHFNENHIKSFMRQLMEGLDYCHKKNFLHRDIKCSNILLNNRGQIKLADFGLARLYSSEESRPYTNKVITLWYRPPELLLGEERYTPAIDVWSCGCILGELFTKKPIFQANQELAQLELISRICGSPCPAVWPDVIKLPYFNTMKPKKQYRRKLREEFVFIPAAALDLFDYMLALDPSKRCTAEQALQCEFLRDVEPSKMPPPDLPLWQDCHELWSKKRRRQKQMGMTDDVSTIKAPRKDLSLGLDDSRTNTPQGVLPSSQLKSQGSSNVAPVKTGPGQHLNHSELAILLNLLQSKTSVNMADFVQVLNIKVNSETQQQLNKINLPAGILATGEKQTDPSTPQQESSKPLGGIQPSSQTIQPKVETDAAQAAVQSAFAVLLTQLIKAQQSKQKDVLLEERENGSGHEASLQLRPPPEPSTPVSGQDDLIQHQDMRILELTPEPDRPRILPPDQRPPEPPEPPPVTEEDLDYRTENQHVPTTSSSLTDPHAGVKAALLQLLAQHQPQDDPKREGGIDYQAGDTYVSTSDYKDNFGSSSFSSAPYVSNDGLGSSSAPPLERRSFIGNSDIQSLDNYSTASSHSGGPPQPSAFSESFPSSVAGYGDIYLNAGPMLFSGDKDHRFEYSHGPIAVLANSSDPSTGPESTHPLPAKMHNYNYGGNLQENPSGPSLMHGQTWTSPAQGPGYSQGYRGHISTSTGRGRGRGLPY
T1 sequence (O75909 whole entry partner, the tested form may be a part): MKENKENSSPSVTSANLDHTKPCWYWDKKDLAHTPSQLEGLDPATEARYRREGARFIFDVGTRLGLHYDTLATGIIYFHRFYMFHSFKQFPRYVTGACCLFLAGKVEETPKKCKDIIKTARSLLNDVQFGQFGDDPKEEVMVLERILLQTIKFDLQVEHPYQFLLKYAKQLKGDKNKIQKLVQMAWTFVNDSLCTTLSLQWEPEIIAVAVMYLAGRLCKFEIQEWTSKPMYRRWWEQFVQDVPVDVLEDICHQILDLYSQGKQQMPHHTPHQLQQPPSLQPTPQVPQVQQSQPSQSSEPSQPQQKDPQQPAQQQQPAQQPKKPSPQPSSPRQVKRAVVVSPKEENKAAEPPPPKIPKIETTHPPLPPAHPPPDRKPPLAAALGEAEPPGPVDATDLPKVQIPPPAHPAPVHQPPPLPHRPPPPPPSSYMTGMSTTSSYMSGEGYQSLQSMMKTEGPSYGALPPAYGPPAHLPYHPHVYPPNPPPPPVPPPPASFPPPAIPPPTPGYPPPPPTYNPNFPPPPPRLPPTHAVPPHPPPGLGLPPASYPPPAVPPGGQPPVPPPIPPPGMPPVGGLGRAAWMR

As to `C=CC(=O)Nc1ccc(C(=O)N2CC[C@@H](Nc3ncc(Cl)c(OC)n3)C2)cc1` [Compound 1, (R)-N-(4-(3-((5-chloro-4-methoxypyrimidin-2-yl)amino)pyrrolidine-1-carbonyl)phenyl)acrylamide], the IC50 in the assay on HCC70 cells (setting [3]) came to 5.1 nM; with HCC70 cells (setting [4]), 14.1 nM; in the assay on RNA polymerase II [1], 19.3 nM; in the assay with OVCAR-3 cells (setting [5]), 4.45 nM; with OVCAR-3 cells (setting [6]), 82.4 nM; on CDK13 it was 25.8 nM. Also, the IC50 at CDK9 worked out at 288 nM; on CDK12, 21.3 nM; on CDK7, 1100 nM; on CDK2, 1150 nM; in the assay with RNA polymerase II [2] it was 21.6 nM.

Turning to `C=CC(=O)Nc1ccc(C(=O)N2CC[C@@H](Nc3ncc(C#N)cn3)C2)cc1` [Compound 4, (R)-N-(4-(3-((5-cyanopyrimidin-2-yl)amino)pyrrolidine-1-carbonyl)phenyl)acrylamide], the IC50 with HCC70 cells (setting [3]) is 32.3 nM; in the assay on HCC70 cells (setting [4]) it was 134 nM; in the assay on RNA polymerase II [1] it was 167 nM; with OVCAR-3 cells (setting [5]) it was 31 nM; in the assay with OVCAR-3 cells (setting [6]), 179 nM; on CDK13 it was 293 nM. The IC50 at CDK9 was 3970 nM; on CDK12, 131 nM; at CDK7, 6960 nM; on CDK2, 7550 nM; in the assay with RNA polymerase II [2], 181 nM.
